Laboratory results reported in patent publication US7074789B2, “Kinase inhibitors” (Amgen Inc., priority 1999, dated 2006).
“And” between values parts separate entries of the source, which are not always exact repeats. Equal entries are not always repeated.

Columns and labels:
Type in all cases: biochemical
PDGFRB = target: T1, PDGFRB (Homo sapiens, UniProt P09619); assay: Kinase inhibition assay (33P transfer), PDGFRB; conditions: read-out: PDGFRB-1
T1 construct: Kinases are expressed as either kinase domains or full length constructs; made in house

Kdr = target: T2, Kdr (Homo sapiens, UniProt P35968); assay: Kinase inhibition assay (33P transfer), Kdr; conditions: Table 3, class symbols; read-out: KDR-1
T2 construct: Kinases are expressed as either kinase domains or full length constructs; made in house
Outline: (§1)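 Enzyme activity is taken as the amount of 33PO4 moved from ATP onto poly(Glu, Tyr) 4:1 or poly(Arg, Ser) 3:1 fixed to the plate surface. Unbound label is removed with 0.5% phosphoric acid before scintillation counting.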

Zap-70 = target: T3, Zap-70 (Homo sapiens, UniProt P43403); assay: Kinase inhibition assay (33P transfer), Zap-70; conditions: Table 3, class symbols; read-out: Zap-1
T3 construct: Kinases are expressed as either kinase domains or full length constructs; made in house
T3 sequence (P43403 1-619): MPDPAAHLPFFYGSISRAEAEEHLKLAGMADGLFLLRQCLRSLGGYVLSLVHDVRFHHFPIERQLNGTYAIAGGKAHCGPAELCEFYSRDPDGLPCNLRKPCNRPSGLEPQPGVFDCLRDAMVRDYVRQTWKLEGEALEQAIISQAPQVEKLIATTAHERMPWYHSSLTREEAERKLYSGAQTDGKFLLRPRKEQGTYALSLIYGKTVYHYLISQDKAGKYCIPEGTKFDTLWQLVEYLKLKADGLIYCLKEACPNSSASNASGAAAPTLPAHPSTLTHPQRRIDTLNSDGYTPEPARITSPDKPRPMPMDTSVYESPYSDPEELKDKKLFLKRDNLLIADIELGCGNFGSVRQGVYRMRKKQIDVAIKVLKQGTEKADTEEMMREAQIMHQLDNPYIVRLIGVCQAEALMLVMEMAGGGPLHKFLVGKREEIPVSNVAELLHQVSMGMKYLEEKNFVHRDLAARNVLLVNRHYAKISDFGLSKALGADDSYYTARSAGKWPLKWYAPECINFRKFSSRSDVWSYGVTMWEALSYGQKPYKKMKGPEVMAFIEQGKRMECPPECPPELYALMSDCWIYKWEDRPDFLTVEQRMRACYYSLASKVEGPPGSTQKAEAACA
Outline: as §1

EGFR = target: T4, EGFR (Homo sapiens, UniProt P00533); assay: Kinase inhibition assay (33P transfer), EGFR; conditions: Table 2, class symbols A-E; read-out: EGFR-1
T4 construct: Kinases are expressed as either kinase domains or full length constructs; made in house
Outline: (§2)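 Each enzyme, purified to near homogeneity by affinity chromatography, was incubated with ATP carrying 33P and a substrate polymer fixed to the plate. Unbound label was removed with dilute phosphoric acid (0.5%) before adding scintillant and counting. Potency is given as the compound level cutting label uptake by 50%.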

AKT = target: T5, AKT (Homo sapiens, UniProt Q9Y243); assay: Kinase inhibition assay (33P transfer), AKT; conditions: Table 2, class symbols A-E; read-out: AKT3-1
T5 construct: Kinases are expressed as either kinase domains or full length constructs; made in house
Outline: as §1

Itk = target: T6, Itk (Homo sapiens, UniProt Q08881); assay: Kinase inhibition assay (33P transfer), Itk; conditions: Table 3, class symbols; read-out: Itk-1
T6 construct: Kinases are expressed as either kinase domains or full length constructs; made in house
T6 sequence (Q08881 1-620): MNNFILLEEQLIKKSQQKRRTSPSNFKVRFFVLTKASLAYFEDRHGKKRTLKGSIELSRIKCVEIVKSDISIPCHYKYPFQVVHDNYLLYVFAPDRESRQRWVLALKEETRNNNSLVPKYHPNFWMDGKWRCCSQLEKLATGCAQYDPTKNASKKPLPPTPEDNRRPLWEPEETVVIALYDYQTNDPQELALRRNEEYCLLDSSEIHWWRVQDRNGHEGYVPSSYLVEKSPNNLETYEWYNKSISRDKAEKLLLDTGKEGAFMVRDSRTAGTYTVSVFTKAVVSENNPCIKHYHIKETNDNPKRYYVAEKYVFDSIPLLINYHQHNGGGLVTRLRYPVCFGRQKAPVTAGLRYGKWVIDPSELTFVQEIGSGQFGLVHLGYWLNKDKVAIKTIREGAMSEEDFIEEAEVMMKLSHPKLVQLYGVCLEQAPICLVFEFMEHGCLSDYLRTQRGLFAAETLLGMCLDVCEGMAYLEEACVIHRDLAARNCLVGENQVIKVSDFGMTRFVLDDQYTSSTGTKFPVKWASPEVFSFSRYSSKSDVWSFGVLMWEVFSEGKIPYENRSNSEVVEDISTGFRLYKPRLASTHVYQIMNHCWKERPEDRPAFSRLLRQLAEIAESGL
Outline: as §2

IGFR-1 = target: T7, IGFR-1 (Homo sapiens, UniProt P08069); assay: Kinase inhibition assay (33P transfer), IGFR-1; conditions: Table 2, class symbols A-E
T7 construct: Kinases are expressed as either kinase domains or full length constructs; made in house

Lck = target: T8, Lck (Homo sapiens, UniProt P06239); assay: Kinase inhibition assay (33P transfer), Lck; conditions: Table 3, class symbols; read-out: Lck-1
T8 construct: Kinases are expressed as either kinase domains or full length constructs; made in house
Outline: as §1

ErbB2 = target: T9, ErbB2 (Homo sapiens, UniProt P04626); assay: Kinase inhibition assay (33P transfer), ErbB2; conditions: read-out: ErbB2-2
T9 construct: Kinases are expressed as either kinase domains or full length constructs; made in house
Outline: as §2

c-Met = target: T10, c-Met (Homo sapiens, UniProt P08581); assay: Kinase inhibition assay (33P transfer), c-Met; conditions: Table 2, class symbols A-E; read-out: Met-1
T10 construct: Kinases are expressed as either kinase domains or full length constructs; made in house
Outline: as §2

T4 sequence (P00533 25-1210, species assumed): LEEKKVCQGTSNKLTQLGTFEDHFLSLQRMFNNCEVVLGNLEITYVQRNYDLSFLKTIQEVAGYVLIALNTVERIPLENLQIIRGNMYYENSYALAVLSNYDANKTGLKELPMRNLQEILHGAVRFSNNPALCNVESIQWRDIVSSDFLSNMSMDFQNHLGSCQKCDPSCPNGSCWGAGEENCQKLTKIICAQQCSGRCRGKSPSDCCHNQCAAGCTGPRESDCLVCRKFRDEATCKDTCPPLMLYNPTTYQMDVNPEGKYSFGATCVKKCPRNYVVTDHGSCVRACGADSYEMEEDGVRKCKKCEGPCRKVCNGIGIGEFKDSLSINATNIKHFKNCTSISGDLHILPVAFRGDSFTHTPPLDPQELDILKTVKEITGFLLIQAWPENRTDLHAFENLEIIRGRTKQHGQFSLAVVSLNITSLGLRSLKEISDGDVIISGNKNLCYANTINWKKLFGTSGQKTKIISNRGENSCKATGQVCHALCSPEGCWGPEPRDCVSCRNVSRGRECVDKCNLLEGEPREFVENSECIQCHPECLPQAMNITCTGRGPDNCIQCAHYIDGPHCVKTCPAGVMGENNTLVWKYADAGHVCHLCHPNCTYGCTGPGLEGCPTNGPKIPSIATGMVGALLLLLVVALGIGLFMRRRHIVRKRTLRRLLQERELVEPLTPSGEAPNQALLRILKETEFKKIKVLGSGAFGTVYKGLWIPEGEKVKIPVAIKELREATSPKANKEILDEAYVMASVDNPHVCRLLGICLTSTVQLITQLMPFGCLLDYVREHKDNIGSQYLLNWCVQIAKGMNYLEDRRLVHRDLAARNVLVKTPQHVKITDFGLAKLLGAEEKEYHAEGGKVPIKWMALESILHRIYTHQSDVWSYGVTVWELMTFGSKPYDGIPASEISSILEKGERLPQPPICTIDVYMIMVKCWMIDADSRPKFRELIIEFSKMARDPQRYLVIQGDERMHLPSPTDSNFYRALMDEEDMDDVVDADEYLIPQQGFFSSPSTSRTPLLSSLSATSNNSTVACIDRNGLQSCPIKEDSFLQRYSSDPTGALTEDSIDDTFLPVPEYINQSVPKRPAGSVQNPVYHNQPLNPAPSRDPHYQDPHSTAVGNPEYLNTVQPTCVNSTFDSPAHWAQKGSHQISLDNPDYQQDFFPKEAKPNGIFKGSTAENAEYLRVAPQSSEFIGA
T10 sequence (P08581 25-1390): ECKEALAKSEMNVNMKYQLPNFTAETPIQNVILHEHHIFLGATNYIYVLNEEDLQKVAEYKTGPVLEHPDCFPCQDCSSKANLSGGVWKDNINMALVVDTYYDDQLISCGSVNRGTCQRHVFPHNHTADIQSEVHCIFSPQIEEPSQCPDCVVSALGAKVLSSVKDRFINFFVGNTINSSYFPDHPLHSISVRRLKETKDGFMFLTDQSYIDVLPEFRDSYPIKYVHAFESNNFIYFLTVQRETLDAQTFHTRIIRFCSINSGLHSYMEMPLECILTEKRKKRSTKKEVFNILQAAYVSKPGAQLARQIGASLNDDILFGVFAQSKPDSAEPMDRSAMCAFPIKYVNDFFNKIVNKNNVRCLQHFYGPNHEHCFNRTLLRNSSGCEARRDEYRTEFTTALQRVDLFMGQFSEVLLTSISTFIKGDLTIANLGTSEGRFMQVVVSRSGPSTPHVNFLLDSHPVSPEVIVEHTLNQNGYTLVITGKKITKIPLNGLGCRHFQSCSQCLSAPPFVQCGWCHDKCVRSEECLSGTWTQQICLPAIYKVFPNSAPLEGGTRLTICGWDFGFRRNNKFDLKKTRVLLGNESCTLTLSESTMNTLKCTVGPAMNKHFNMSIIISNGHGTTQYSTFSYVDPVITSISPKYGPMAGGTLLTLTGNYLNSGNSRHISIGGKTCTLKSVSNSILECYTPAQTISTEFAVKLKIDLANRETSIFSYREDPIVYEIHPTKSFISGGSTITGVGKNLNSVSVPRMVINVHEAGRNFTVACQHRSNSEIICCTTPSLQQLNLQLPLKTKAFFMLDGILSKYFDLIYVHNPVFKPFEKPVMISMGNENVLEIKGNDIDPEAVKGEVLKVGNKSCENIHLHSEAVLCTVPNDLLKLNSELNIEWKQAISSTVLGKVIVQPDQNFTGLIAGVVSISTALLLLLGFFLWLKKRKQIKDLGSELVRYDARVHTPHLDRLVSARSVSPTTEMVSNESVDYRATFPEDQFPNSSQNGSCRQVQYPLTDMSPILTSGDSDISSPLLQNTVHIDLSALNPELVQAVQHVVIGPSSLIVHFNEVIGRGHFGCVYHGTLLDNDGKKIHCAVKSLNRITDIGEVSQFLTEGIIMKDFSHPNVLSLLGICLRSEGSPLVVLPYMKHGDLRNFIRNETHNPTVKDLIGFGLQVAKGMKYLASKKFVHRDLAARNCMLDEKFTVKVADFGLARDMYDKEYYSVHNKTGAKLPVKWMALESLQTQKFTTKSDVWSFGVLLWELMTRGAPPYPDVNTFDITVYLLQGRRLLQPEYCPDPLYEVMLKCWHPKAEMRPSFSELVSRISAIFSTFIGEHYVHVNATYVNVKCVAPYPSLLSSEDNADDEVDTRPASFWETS
T2 sequence (P35968 20-1356, species assumed): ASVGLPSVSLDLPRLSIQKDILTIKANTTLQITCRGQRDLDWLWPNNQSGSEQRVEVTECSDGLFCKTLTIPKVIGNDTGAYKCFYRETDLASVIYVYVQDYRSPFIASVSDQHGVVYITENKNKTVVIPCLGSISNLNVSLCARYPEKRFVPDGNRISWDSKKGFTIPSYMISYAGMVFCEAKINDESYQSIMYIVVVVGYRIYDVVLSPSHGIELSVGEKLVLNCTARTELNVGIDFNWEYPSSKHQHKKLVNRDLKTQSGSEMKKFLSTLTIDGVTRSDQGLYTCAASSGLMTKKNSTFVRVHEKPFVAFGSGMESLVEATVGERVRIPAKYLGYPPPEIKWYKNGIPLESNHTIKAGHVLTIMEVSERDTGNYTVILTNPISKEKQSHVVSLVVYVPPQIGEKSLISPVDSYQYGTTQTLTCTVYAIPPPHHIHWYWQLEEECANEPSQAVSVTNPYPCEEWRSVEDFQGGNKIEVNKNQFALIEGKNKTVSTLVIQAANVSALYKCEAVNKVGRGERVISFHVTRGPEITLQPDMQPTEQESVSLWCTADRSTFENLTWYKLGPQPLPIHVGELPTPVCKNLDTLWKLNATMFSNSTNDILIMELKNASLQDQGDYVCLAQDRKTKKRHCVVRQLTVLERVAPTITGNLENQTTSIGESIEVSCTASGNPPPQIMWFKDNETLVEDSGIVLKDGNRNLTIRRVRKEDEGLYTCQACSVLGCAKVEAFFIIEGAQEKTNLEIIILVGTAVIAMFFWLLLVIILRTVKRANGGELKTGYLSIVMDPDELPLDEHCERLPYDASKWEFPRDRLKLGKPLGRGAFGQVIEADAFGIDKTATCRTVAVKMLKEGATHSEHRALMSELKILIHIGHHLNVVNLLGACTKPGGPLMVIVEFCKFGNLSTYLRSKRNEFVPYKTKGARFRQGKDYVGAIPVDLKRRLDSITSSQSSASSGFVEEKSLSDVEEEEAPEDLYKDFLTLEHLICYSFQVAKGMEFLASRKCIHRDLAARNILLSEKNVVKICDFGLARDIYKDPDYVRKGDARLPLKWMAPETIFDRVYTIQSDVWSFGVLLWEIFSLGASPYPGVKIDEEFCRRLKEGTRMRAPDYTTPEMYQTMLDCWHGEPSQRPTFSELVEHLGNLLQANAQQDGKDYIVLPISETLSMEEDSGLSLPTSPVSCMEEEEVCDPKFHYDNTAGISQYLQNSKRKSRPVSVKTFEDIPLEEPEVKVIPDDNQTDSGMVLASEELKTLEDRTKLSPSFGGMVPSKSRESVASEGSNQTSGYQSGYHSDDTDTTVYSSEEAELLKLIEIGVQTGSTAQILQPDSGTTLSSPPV
T9 sequence (P04626 23-1255, species assumed): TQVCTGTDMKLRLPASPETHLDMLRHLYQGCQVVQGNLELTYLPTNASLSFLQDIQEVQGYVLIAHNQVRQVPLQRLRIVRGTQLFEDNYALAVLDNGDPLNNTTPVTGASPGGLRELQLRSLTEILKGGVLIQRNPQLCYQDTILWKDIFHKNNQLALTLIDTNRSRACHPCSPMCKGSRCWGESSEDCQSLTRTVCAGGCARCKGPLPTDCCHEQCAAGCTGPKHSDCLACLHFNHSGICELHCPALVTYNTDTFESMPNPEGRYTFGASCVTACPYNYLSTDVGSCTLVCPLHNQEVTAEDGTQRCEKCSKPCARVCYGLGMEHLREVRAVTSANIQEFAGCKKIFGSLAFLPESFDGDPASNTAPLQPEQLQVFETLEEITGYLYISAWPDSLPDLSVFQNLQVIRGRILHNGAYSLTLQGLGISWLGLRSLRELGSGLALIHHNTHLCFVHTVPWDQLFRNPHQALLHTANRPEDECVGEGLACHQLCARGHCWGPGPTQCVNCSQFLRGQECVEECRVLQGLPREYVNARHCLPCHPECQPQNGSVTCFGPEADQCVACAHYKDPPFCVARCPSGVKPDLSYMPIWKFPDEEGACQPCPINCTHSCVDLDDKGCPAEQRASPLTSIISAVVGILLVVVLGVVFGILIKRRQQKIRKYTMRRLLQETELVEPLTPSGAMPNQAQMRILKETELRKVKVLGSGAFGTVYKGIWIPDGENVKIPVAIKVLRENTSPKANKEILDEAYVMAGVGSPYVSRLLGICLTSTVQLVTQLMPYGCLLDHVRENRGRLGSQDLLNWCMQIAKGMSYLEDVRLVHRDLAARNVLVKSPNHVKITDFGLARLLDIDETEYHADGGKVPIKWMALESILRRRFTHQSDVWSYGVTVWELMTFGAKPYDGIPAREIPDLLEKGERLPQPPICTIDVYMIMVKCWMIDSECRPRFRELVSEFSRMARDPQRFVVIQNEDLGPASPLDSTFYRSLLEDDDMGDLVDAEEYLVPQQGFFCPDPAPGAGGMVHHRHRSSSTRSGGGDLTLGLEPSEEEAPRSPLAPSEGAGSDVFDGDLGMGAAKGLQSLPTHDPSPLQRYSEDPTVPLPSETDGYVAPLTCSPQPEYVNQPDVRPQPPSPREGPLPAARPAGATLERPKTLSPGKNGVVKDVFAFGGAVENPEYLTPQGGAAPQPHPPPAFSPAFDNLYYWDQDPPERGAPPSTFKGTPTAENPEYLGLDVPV

Row | Structure (SMILES) | IC50 (PDGFRB) [µM] | IC50 (Kdr) [µM] | IC50 (Zap-70) [µM] | IC50 (EGFR) | IC50 (AKT) | IC50 (Itk) | IC50 (IGFR-1) | IC50 (Lck) | IC50 (ErbB2) | IC50 (c-Met) [µM]
1 | COc1ccc(Nc2ncnc(Nc3ccc4c(cnn4Cc4ccccc4)c3)n2)cc1 [Compound 905] | 0.945 to 5.67 | 0.945 to 5.67 | > 10.6 | < 0.945 µM | > 10.6 µM | 0.945 to 5.67 µM | > 10.6 µM | > 10.6 µM | 0.945 to 5.67 µM | 0.945 to 5.67
2 | CN(c1cccc(Cl)c1)c1ncnc(Nc2cc(Cl)c(Cl)c(Cl)c2)n1 [Compound 804] | 8.43 to 10.8 | > 10.8 | > 10.8 | > 10.8 µM | > 10.8 µM | > 10.8 µM | > 10.8 µM | > 10.8 µM | > 10.8 µM | > 10.8
3 | NC(=O)Cc1cccc(Nc2ncnc(-n3c(NCc4ccccc4)nc4ccccc43)n2)c1 [Compound 967] | < 0.888 | < 0.888 | > 9.99 | < 0.888 µM | 7.77 to 9.99 µM | 7.77 to 9.99 µM | > 9.99 µM | < 0.888 µM | 0.888 to 5.33 µM | 5.33 to 7.77
4 | COc1cc(Nc2ncnc(N(CCO)c3ccccc3)n2)cc(OC)c1OC [Compound 637] | 6.04 to 8.81 | 1.01 to 6.04 | > 11.3 | < 1.01 µM | > 11.3 µM | > 11.3 µM | > 11.3 µM | 1.01 to 6.04 µM | 6.04 to 8.81 µM | 6.04 to 8.81
5 | Cc1ccc2c(c1)CCCN2c1ncnc(Nc2cccc(Cc3nnn[nH]3)c2)n1 [Compound 635] | 1 to 6.01 | < 1 | 8.76 to 11.3 | < 1 µM | > 11.3 µM | > 11.3 µM | > 11.3 µM | 6.01 to 8.76 µM | < 1 µM | < 1
6 | OCc1cccc(Nc2ncnc(-c3cccnc3NCc3ccc(F)cc3)n2)c1 [Compound 1104] | < 0.994 | < 0.994 | > 11.2 | > 11.2 µM and 0.994 to 5.96 µM | 8.7 to 11.2 µM and > 11.2 µM | > 11.2 µM and 8.7 to 11.2 µM | > 11.2 µM and 8.7 to 11.2 µM | > 11.2 µM and 0.994 to 5.96 µM | > 11.2 µM and 0.994 to 5.96 µM | > 11.2
7 | COc1cc(Nc2ncnc(-c3cccnc3Nc3cccc(C(F)(F)F)c3)n2)cc(OC)c1OC [Compound 836] | > 9.03 | > 9.03 | > 9.03 | > 9.03 µM | > 9.03 µM | > 9.03 µM | > 9.03 µM | > 9.03 µM | > 9.03 µM | > 9.03
8 | CN(c1cccc(Cl)c1)c1ncnc(Nc2ccc3nn(C)cc3c2)n1 [Compound 675] | 1.09 to 6.56 | 1.09 to 6.56 | > 12.3 | < 1.09 µM | > 12.3 µM | > 12.3 µM | 6.56 to 9.57 µM | 1.09 to 6.56 µM | < 1.09 µM | 1.09 to 6.56
9 | c1ccc(-c2cc(Nc3ncnc(Nc4ccc5[nH]ncc5c4)n3)[nH]n2)cc1 [Compound 1013] | < 1.08 | < 1.08 | 6.5 to 9.48 | 1.08 to 6.5 µM | 1.08 to 6.5 µM | 1.08 to 6.5 µM | < 1.08 µM | 1.08 to 6.5 µM | 1.08 to 6.5 µM | 1.08 to 6.5
10 | COc1ccc(Nc2ncnc(Nc3ccc4ncsc4c3)n2)cc1OC [Compound 895] | < 1.05 | 1.05 to 6.31 | > 11.8 | 1.05 to 6.31 µM | > 11.8 µM | 1.05 to 6.31 µM | < 1.05 µM | 1.05 to 6.31 µM | 6.31 to 9.2 µM | > 11.8
11 | CN(c1cccc(Cl)c1)c1ncnc(Nc2cccc(OC(F)(F)F)c2)n1 [Compound 875] | 1.01 to 6.06 | 6.06 to 8.84 | > 11.4 | < 1.01 µM | > 11.4 µM | 8.84 to 11.4 µM | > 11.4 µM | > 11.4 µM | 1.01 to 6.06 µM | 6.06 to 8.84
12 | COC(=O)c1ccc(-c2cc(Nc3ncnc(NCc4ccccc4OC)n3)[nH]n2)cc1 [Compound 815] | 0.927 to 5.56 | 8.11 to 10.4 | > 10.4 | > 10.4 µM | > 10.4 µM | > 10.4 µM | > 10.4 µM | > 10.4 µM | 0.927 to 5.56 µM | > 10.4
